In patent publication US11285158B2, “Uses of pyrimidopyrimidinones as SIK inhibitors” (The General Hospital Corporation, priority 2017, dated 2022):
pEC50: −log10 of the molar value. “Also recorded” adds a separate entry of the source.

How the values were obtained:
B16 cells = experiment: In vitro MITF induction in B16 cells; assay type: cell-based, mouse; settings: Mus musculus, Table 5
Method: (§1) qPCR. mRNA was extracted from cells using the RNeasy Mini Kit (Qiagen®). KAPA SYBR® FAST Universal One-Step qRT-PCR Kit (KAPA BIOSYSTEMS®) was used to prepare mRNA samples for qPCR and samples were analyzed using the 7500 Fast Real Time PCR System (Applied Biosystems®). The relative expression of each gene was calculated by 7500 Fast System Software program, which utilizes Ct normalized to mRNA levels of RPL11 to calculate relative expression. Results are reported relative to control cells.
Tables 2 to 5 below show the effects of exemplary […] compounds on skin darkening, including an in vitro test of MITF induction following the same protocol as described above in paragraph 333, wherein exemplary SIK inhibitor compounds were tested for their in vitro induction of MITF.
(§2) Table 5 below additionally provides characteristics of exemplary SIK inhibitor compounds, MITF induction in B16 cells, EC50, log P, and experimental conditions for skin darkening experiments in mice and humans.

mouse skin = experiment: Skin darkening experiments in mice (Table 5); assay type: in vivo; settings: HG-9-91-01: 2 days, 25 mM, HG-11-136-01: 12 days, HG-11-143-01: 12 days, 25 mM (4 days) −130 mM (8 days)
Method: Mouse pigmentation experiments. […] Daily differences in darkening of the skin were measured by reflective colorimetry. Skin was harvested, fixed, and processed for paraffin embedding. Sections were cut from paraffin blocks, and sections were stained utilizing hematoxylin and eosin (morphology) and Fontana-Masson (melanin). Melanin dissolution was conducted utilizing NaOH lysis method (Wakamatsu and Ito 2002).
as §2

[1] = tested on: normal human melanocytes, UACC62 melanoma cells, and UACC257 melanoma cells; experiment: MITF and TRPM1 mRNA expression by qPCR; assay type: cell-based; settings: for Mitf expression: UACC62 and UACC257 melanoma cells (FIG. 7); for TRPM1 mRNA levels (MITF gene target): delayed relative to MITF induction, 4 uM, over 24 hours; for MITF mRNA expression / Induction of the pigmentation pathway compared with HG 9-91-01: normal human melanocytes; for MITF mRNA expression: UACC62 and UACC257 cells, 3 hours of treatment, relative to RPL11; for Induction of the pigmentation pathway compared with HG 9-91-01: Mitf and TRPM1 mRNA (FIG. 4)
Method: Cell Culture. UACC257 and UACC62 cells were grown in RPM1+1% penicillin and streptomycin+5% fetal bovine serum. Normal human melanocytes were grown in TIVA, and starved 24 hours in HAM's F-12+1% penicillin and streptomycin before all molecular experiments.
as §1

UACC257 melanoma cells = experiment: Cell pelleting experiment (gross pigmentation of cell pellets); assay type: cell-based, human; settings: 4 uM, 3 days of treatment
Method: Cell pelleting experiments. 1×10^5 UACC257 cells were plated per well in a 6-well plate. […] After 3 days, cells were trypsinized with 0.25% trypsin, resuspended in RPMI media, and pelleted. Pellets were washed 1× with PBS and allowed to dry before imaging.

Mc1r^e/e;K14—Scf mice = experiment: Mouse pigmentation experiment, redhair model; assay type: in vivo
Method: (§3) Mice. C57BL/6J Mc1r^e/e mice were crossed with K14—Scf transgenic mice. C57BL/6J Tyr^c2j/c2j were crossed with K14—Scf transgenic mice. (Kunisada et al. 1998; D'Orazio et al. 2006).
(§4) Mouse pigmentation experiments. Animals were treated with vehicle control or 37.5 mM HG 9-9-01 until uniform gross darkening was visible as stated in figure legends. Daily differences in darkening of the skin were measured by reflective colorimetry. Skin was harvested, fixed, and processed for paraffin embedding. Sections were cut from paraffin blocks, and sections were stained utilizing hematoxylin and eosin (morphology) and Fontana-Masson (melanin). Melanin dissolution was conducted utilizing NaOH lysis method (Wakamatsu and Ito 2002).
(§5) Colorimeter Measurements: Differences in darkening of the skin were measured by reflective colorimetry (CIE L* white-black color axis) utilizing a CR-400 Colorimeter (Minolta®) calibrated by a calibration plate (C: Y 93.1, x 0.3133, y 0.3194) before each set of measurements.
(§6) To test this, a previously described mouse “redhair” model was utilized which carries the inactivating Mc1r^e/e mutant allele and a transgene, K14—SCF, in which Stem Cell Factor expression is driven by the Keratin-14 promoter allowing for epidermal homing of melanocytes (Kunisada et al. 1998; D'Orazio et al. 2006). Albino mice harboring a mutation in the tyrosinase gene were combined with the K14—Scf transgene (tyr^c/c;K14—Scf mice) and served as controls to evaluate whether the pigmentation afforded by topical SIK inhibitor was dependent upon the canonical tyrosinase-melanin pathway. […] Skin pigmentation remained in its pretreatment state over the next 30 days (FIG. 3A; 3B). […] These findings combined with the small molecule and lipophilic nature of the SIK inhibitors led us to investigate the use of SIK inhibitors for topical eumelanization of human skin.

Tyr^c/c;K14—Scf mice = experiment: Mouse pigmentation experiment, albino control mice; assay type: in vivo
Method: as §3, §4, §5, §6

[2] = tested on: human breast skin explants; experiment: Human skin explants: darkening/pigmentation after topical SIK inhibitor; assay type: cell-based; settings: for Results (skin darkening): Human Skin Explants; for Gross pigmentation of human skin explants / Melanin content, Fontana Masson staining: 37.5 mM; for Gross pigmentation of human skin explants: 8 days (1×/day); for Melanin content, Fontana Masson staining: 8 days, compared to control
Method: Image and Colorimeter analysis were conducted 24 hours after the last treatment.
Human pigmentation experiments. Full thickness human breast skin explants were cultured in petri dishes with a solid phase and liquid phase phenol red free DMEM medium with […], 5% fungizone (Gibco®), and 10% FBS. Passive application refers to simply applying the treatment to skin without further rubbing or manipulation. Mechanical application refers to application of agents to skin with further rubbing of treatment with 10 clockwise turns of a gloved cotton swab applicator. Skin was harvested, fixed, and processed for paraffin embedding. Sections were cut from paraffin blocks, and sections were stained utilizing hematoxylin and eosin (morphology) and Fontana-Masson (melanin).

[3] = tested on: panel of 468 human kinases; experiment: KinomeScan kinome profiling; assay type: binding
Method: Kinome Profiling. Kinome profiling was performed using KinomeScan ScanMAX at compound concentration of 1 μM. Protocols are available from DiscoverX®.
(§7) Since there are limitations to topical delivery of drugs into human skin epidermis, novel SIK inhibitors designed to enhance epidermal permeation by reducing the size and increasing the lipophilicity (c Log P) to develop second generation SIK inhibitors YKL 06-061 and YKL 06-062 were derived (FIG. 6) (Bos and Meinardi 2000; Hadgraft and Pugh 1998). […] To assess the kinome selectivity information of new analogs, YKL-06-061 was screened across a panel of 468 human kinases at a concentration of […] using the KinomeScan methodology (DiscoverX). […] As the KinomeScan assays measure binding, enzymatic assays for these targets were also performed either in-house or using the SelectScreen Kinase Profiling Service at Thermo Fisher Scientific (Madison, Wis.).

SIKs = experiment: Kinase activity in vitro assay (biochemical IC50 against SIKs); set-up: species or system human; settings: compared with HG 9-91-01 (FIG. 6)
Method: Kinase activity in vitro assay. The biochemical activities against SIK2 were measured by Caliper-based mobility shift assay (PerkinElmer®). […] Reactions were quenched by adding 20 mM EDTA (pH 8) after 1 hour, and percentage of substrate conversion was measured by LabChip EZ Reader II (PerkinElmer®). IC50's for SIK2 inhibition were calculated using SmartFit nonlinear regression in Genedata® Screener software suite (Genedata®).
(§8) All other in vitro kinase assay were conducted using the SelectScreen Kinase Profiling Service at Thermo Fisher Scientific® (Madison, Wis.). The protocols are available from Thermo Fisher Scientific® website.

FRK and SIKs = experiment: Enzymatic assays of KinomeScan top hits (in-house or SelectScreen); assay type: biochemical, human
Method: as §8, §7

[4] = Table 2, passive topical application

SMILES | Darkening (Mouse) (mouse skin) | Mitf expression [1] | TRPM1 mRNA levels (MITF gene target) [1] | MITF mRNA expression [1] | Results (skin darkening) [2, 4] | Results (skin darkening) ([2]; Table 4) | Gross pigmentation of human skin explants ([2]; passive topical application) | Melanin content, Fontana Masson staining ([2]; passive topical application) | Induction of the pigmentation pathway compared with HG 9-91-01 [1] | IC50 values for inhibition of SIKs (SIKs) | other results
COc1ccc(N2C(=O)N(c3c(C)cccc3C)Cc3cnc(Nc4ccc(N5CCN(C)CC5)cc4)nc32)c(OC)c1 [HG-11-136-01] | Darkens | – | – | – | – | – | – | – | – | – | maximal fold induction (B16 cells; B16 cells, read-out: Highest fold mitf induction in B16 cells): 6.1
COc1ccc(N(C(=O)Nc2c(C)cccc2C)c2cc(Nc3ccc(N4CCN(C)CC4)cc3)ncn2)c(OC)c1 [HG-9-91-01] | Darkens | – | – | – | – | – | – | – | – | – | pEC50 (B16 cells; readout not given, presumably mitf induction in B16 cells): 7.80
COc1ccc(N(C(=O)Nc2c(C)cccc2C)c2cc(Nc3ccc(N4CCN(C)CC4)cc3)ncn2)c(OC)c1 [HG 9-91-01] | – | induces Mitf expression | increased | Dose-dependent increases | – | – | – | – | – | – | Gross pigmentation of cell pellets (UACC257 melanoma cells): Gross pigmentation was observed; Fontana-Masson staining, difference between treatment groups (Mc1r^e/e;K14—Scf mice; 40 days after treatment, Mc1r^e/e;K14—Scf and Tyr^c/c;K14—Scf mice): no differences; Skin morphology, hematoxylin and eosin stain (Mc1r^e/e;K14—Scf mice; 40 days after treatment, all mice): normal morphology; Nuclear capping of melanosomes within epidermal keratinocytes (Mc1r^e/e;K14—Scf mice; Fontana-Masson stained skin sections): Nuclear capping of melanin-laden melanosomes was observed; Time to reversal of darkening after treatment was stopped (Mc1r^e/e;K14—Scf mice; after 6 days of topical treatment): ≤ 10 days; Skin morphology, hematoxylin and eosin staining (Mc1r^e/e;K14—Scf mice; after treatment): normal morphology; Extractable eumelanin, NaOH lysis of skin samples (Mc1r^e/e;K14—Scf mice; compared to all other treatment groups): visible increase in extractable eumelanin; Course of darkening (Mc1r^e/e;K14—Scf mice; topical application, 6 days of treatment): progressive and reversible; also recorded: progressive over 6 days of treatment; Reflective colorimetry (CIE L* white-black color axis) (Mc1r^e/e;K14—Scf mice; topical, daily, 37.5 mM): significant darkening; Gross skin darkening (Mc1r^e/e;K14—Scf mice; topical, daily, 37.5 mM, 30 uL, 6 days / 7 days (FIG. 2)): robust darkening; Melanin production, Fontana-Masson staining (Mc1r^e/e;K14—Scf mice; treated skin areas): strong induction of melanin production; Epidermis morphology, hematoxylin and eosin staining (Tyr^c/c;K14—Scf mice; after treatment): normal morphology; Pigment induction, Fontana-Masson staining (Tyr^c/c;K14—Scf mice; albino mice): no pigment induction; Visible change in skin pigmentation (Tyr^c/c;K14—Scf mice; albino mice, topical, daily, 37.5 mM): No visible change in skin pigmentation; Change of skin colour during and after treatment (Tyr^c/c;K14—Scf mice; during treatment or 14 days after treatment was stopped): No change
COc1cc(N2CCN(C)CC2)ccc1Nc1ncc2c(n1)N(C1CCC1)C(=O)N(c1c(C)cccc1C)C2 [YKL-06-061, 1-cyclobutyl-3-(2,6-dimethylphenyl)-7-(2-methoxy-4-(4-methylpiperazin-1-yl)phenylamino)-3,4-dihydropyrimido[4,5-d]pyrimidin-2(1H)-one] | – | induces Mitf expression | increased | dose dependent increase | Darkens | Darkens | induced significant pigmentation | increased melanin content | as efficacious in inducing the pigmentation pathway as HG 9-91-01 | comparable | S(1) score ([3]; concentration of 1 pM): 0.02; Number of kinases displaying tight binding (Ambit scores of less than or equal to 1) ([3]; concentration of 1 µM): 16; Kinase selectivity in enzymatic assays (FRK and SIKs): only inhibited one kinase (FRK) stronger than SIKs
Cc1cccc(C)c1N1Cc2cnc(Nc3ccc(N4CCN(C)CC4)cc3)nc2N(C2CCCCC2)C1=O [YKL-06-062, 1-cyclohexyl-3-(2,6-dimethylphenyl)-7-(4-(4-methylpiperazin-1-yl)phenylamino)-3,4-dihydropyrimido[4,5-d]pyrimidin-2(1H)-one] | – | induces Mitf expression | increased | dose dependent increase | Darkens | Darkens | induced significant pigmentation | increased melanin content | as efficacious in inducing the pigmentation pathway as HG 9-91-01 | comparable | –
